The subject of experiment [1] is human naïve CD4 T cells. The experiment can be described thus: Screening of secretomics recombinant proteins for Tfh marker induction. Particulars: secretomics protein screen, anti-CD3/CD28 beads, 5 days, automated FACS. Format: cell-based. The method, then:
FIG. 1A-D: Inhibin beta A (INHBA) emerged from the screen as potent regulator of human Tfh differentiation. (A) Schematic of primary screen. Purified human naïve CD4 T cells from a leukapheresis donor were stimulated by anti-CD3/CD28 beads on 384 well plates on day 0. The GNF secretomics recombinant proteins were added at the beginning of the stimulation. Each secretomics protein was tested in duplicate. After 5 days of in vitro culture, cells were evaluated by automated FACS analysis for the expression of Tfh signature markers, including CXCR5 and PD-1. (B) Primary screen results. Relative enrichment of PD-1^+CXCR5^+ cell induction is reported as Z score for each recombinant protein. INHBA gene product is shown in red. (C) CXCR5 and PD-1 expression from repeat experiment in which INHBA gene product was tested again for its capacity to induce Tfh-like differentiation. (D) Confocal microscopy of INHBA expression in human tonsils. Tonsil sections were stained with anti-INHBA (red) anti-BCL6 (blue) and anti-CD3 (green) Abs. An overlay from one donor representative of six is shown on the left panel. […]
Naïve CD4^+ T cells were isolated from leukapheresis-derived mononuclear cells via CliniMACS negative selection (Miltenyi Biotec). […] Induction of CXCR5 and PD-1 was assessed after 5 days of in vitro culture using automated FACS acquisition via HTS on LSR Fortessa (BD Biosciences). For each 384 well plate, mean and standard deviation of PD-1^+CXCR5^+ cell frequency induced by each individual recombinant proteins was determined and used to calculate the Z score. Z scores of replicate plates were analyzed independently.
To discover novel regulators of human Tfh cell differentiation, we performed an unbiased high throughput screen of a human extracellular proteome library consisting of over 2000 human proteins predicted or known to be cytokines, chemokines, morphogens, costimulatory receptors, or single pass transmembrane molecules^19. […] Following 5 days, expression of the Tfh signature markers CXCR5 and PD-1 were measured on the cells by flow cytometry, in an automated fashion. […]

Experiment [2] concerns rhesus macaque naïve CD4 T cells. The experiment can be described thus: Non-human primate (NHP) differentiation. Type of experiment: cell-based, macaca mulatta (rhesus macaques). The settings on record: 5 days. The procedure: CD4^+ T cells from rhesus macaque PBMCs were enriched using the Non-Human Primate CD4^+ T Cell Isolation Kit (Miltenyi Biotec). Naïve CD4^+ T cells were isolated by FACS sorting as CD4^+CD45RA^+CD95^−CD28^+CCR7^+ cells. Naïve CD4^+ T cells (7.5×10^4 cells/well) were activated by plate-bound anti-human-CD3 and anti-human-CD28 (both at 5 μg/ml, BD) and cultured with recombinant human/mouse/rat activin A (50 ng/ml) and/or recombinant human IL-12 (5 ng/ml) for 5 days. Phenotype was assessed by flow cytometry.

The test system of experiment [3] is human naïve CD4 T cells. The experiment can be described thus: qPCR / flow cytometry of LIF, PRDM1, SLAMF1, ITGβ7 on day 3 differentiated cells. Type of experiment: cell-based. The settings on record: for PRDM1 (BLIMP1) expression: RNA-seq and qPCR. The text has this:
FIG. 2A-O: Activin A plays a synergic role with IL-12 and molds the human Tfh gene program. (A-B) Bead purified naïve CD4 T cells from multiple healthy subjects were stimulated by anti CD3/CD28 beads on 96 well plates, in the presence of commercial human recombinant activin A, with or without IL-12. […] A representative donor is shown in (A). Data from 12 donors from 6 independent experiments are shown in (B). […] Data from one experiment representative of two are depicted (n=3). (D) Cells were cultured in vitro with different doses of activin A combined with a fixed amount of IL-12 for 5 days in the presence of anti-activin A mAb MOR8806 (block) or isotype control mAb (isotype). Graphs show mean and SEM from 3 independent experiments (n=8). Dotted lines indicate the average percentages of PD-1^+CXCR5^+ cells induced by IL-12 with isotype control mAb from 8 donors. (E) CCR7 MFI on day 5 in vitro differentiated cells. […] (J) RNA-seq analysis on day 3 in vitro differentiated cells. The “Volcano” plots show the absolute gene expression data set (RPKM) from cells differentiated with activin A and IL-12 versus cells differentiated with beads only. […] (K) Heat-map showing absolute expression (RPKM) of selected Tfh signature genes on cells differentiated with beads only, IL-12, activin A or activin A+IL12. (L and N) Relative expression (2-ΔCt) of LIF and PRDM1 was determined by qPCR. (M and O) SLAMF1 and ITGβ7 expression by flow cytometry. In (L) to (0) all the data were obtained from day 3 in vitro differentiated cells and are from at least 3 or more independent experiments (n=9 or higher). Bars show mean and SEM. * p<0.05, ** p<0.01 and *** p<0.001. RNA was isolated by QIAGEN RNeasy spin columns and reverse-transcribed into cDNA using Superscript II Reverse Transcriptase (Invitrogen). Quantitative real-time PCR of ACTB, LIF, and PRDM1 was performed using the following primers: ACTB forward, [NT], ACTB reverse, [NT] forward, [NT] reverse, [NT]; and PRDM1 forward, [NT], PRDM1 reverse [NT]. Real-time PCR was set up with Applied Biosystem SYBR Green Master Mix.
A general note: Quantitative PCR measures a nucleic acid by following its amplification.

The subject of a further experiment is SMAD2/3. The experiment can be described thus: Analysis of phosphorylated SMAD2/3 in tonsil CD4 T cells. Type of experiment: cell-based, human. The settings on record: for P-SMAD induction: activin A. The text has this: Fresh PBMCs and tonsil mononuclear cells were serum-starved over night in AIM-V medium. […] Following stimulation, the cells were fixed in BD Phosflow™ Fix Buffer I (BD Biosciences), then permeabilized using BD Phosflow™ Perm Buffer III (BD Biosciences) following manufacture's instruction.

“Also recorded” adds a separate entry of the source.

As to TGFβ, the “induction of CXCR5 and PD-1 expression (PD-1+CXCR5+ cells)” value with human naïve CD4 T cells [1] is on record as “regulator T cell differentiation”.

Turning to “activin A: commercial recombinant cytokine, homodimer of the INHBA gene product (inhibin beta A)”, the “induction of PD-1+CXCR5+ cells” value in experiment [2] is “Potent induction of PD-1^+CXCR5^+ cells; also recorded: potent CXCR5 and PD-1 inducer for both human and non-human primate activated naïve CD4 T cells”. The “LIF and LTα expression” value with human naïve CD4 T cells [3] (CD4 T cells cultured with activin A) is “enhanced CD4 T cell expression of LIF and LTα”. The “PRDM1 (BLIMP1) expression” value was “express less PRDM1 (Blimp1)” in the experiment with human naïve CD4 T cells [3] (day 3 differentiated cells) and “significant downregulation of PRDM1” with human naïve CD4 T cells [3] (day 3 differentiated cells, listed as Activin A). In addition, the ITGβ7 expression entry with human naïve CD4 T cells [3] (day 3 differentiated cells, flow cytometry) is recorded as “downregulated in the presence of activin A”. The “induction of CXCR5 and PD-1 expression (PD-1+CXCR5+ cells)” value with human naïve CD4 T cells [1] is “potent regulator of the human Tfh gene program; also recorded: top hit in the screen”. The P-SMAD induction entry with SMAD2/3 (tonsil PD-1intCXCR5int mTfh cells) was “moderate but specific P-SMAD induction”; in the experiment with SMAD2/3 (tonsil fully mature GC Tfh cells) it was “did not”. Further, the “phosphorylation of SMAD2/3” value with SMAD2/3 (tonsil naïve CD4 T cells cultured with activin A) was “quickly phosphorylated SMAD2/3”.

These data come from patent US20180111991A1, “MODULATORS OF ACTIVIN AND METHODS FOR MODULATING IMMUNE RESPONSES AND T FOLLICULAR HELPER CELLS” (LA JOLLA INSTITUTE FOR ALLERGY AND IMMUNOLOGY, priority 2014, published 2018).
